Data on three molecules can be found in ChEMBL document CHEMBL1201862, “PubChem BioAssay data set” (2004).

Active and inactive are the calls of the source.

Test [1] has as its target Serine/threonine-protein phosphatase PP1-alpha catalytic subunit (Homo sapiens, UniProt P62136). The test can be described thus: inhibition of protein phosphatase 1 activity – biochemical, fluorescence, dose response (AID 2394).
The next test deals with Focal adhesion kinase 1 (Homo sapiens, UniProt Q05397). Type of test: functional.
In test [2] the target is Serine/threonine-protein kinase Nek2 (Homo sapiens, UniProt P51955). Type of test: functional.
The target in test [3] is Cyclin-dependent kinase 7 (Homo sapiens, UniProt P50613). The class given is functional.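 Note: value comes from a kinome-wide kinase profiling panel in which CDK7 is one member.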
Test [4] addresses Mitogen-activated protein kinase kinase kinase kinase 4 (Homo sapiens, UniProt O95819). Type of test: functional.
The target of test [5] is Dual specificity mitogen-activated protein kinase kinase 2 (Homo sapiens, UniProt P36507). Kind of test: Navigating the Kinome. Panel member name: MAP2K2. Type of test: functional.
Test [6] concerns the target Inhibitor of nuclear factor kappa-B kinase subunit epsilon (Homo sapiens, UniProt Q14164). Kind of test: Navigating the Kinome. Panel member name: IKBKE. The class given is functional.
For test [7], the target named is Dual specificity protein phosphatase 3 (Homo sapiens, UniProt P51452). Kind of test: VHR1 phosphatase inhibitors, biochemical (AID 1878).
The target of test [8] is T1, Dual specificity protein phosphatase 6 (Rattus norvegicus, UniProt Q64346).
T1 sequence (Q64346 whole entry): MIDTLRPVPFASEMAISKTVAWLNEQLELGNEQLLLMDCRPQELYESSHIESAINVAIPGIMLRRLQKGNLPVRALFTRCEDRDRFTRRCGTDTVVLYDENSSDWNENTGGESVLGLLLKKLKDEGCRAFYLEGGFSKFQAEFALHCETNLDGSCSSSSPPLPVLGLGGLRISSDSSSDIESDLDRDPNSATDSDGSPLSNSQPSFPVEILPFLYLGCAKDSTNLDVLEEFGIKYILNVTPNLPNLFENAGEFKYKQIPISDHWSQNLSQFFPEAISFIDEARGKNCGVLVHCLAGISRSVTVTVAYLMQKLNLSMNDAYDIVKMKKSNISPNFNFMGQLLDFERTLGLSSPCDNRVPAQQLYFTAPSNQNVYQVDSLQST
Kind of test: inhibition of rat DUSP6 enzyme activity – biochemical, in vitro, primary screen (AID 425).

The target of the next test is T2, ORF 73 (Human herpesvirus 8, UniProt O40947).
T2 sequence (O40947 whole entry): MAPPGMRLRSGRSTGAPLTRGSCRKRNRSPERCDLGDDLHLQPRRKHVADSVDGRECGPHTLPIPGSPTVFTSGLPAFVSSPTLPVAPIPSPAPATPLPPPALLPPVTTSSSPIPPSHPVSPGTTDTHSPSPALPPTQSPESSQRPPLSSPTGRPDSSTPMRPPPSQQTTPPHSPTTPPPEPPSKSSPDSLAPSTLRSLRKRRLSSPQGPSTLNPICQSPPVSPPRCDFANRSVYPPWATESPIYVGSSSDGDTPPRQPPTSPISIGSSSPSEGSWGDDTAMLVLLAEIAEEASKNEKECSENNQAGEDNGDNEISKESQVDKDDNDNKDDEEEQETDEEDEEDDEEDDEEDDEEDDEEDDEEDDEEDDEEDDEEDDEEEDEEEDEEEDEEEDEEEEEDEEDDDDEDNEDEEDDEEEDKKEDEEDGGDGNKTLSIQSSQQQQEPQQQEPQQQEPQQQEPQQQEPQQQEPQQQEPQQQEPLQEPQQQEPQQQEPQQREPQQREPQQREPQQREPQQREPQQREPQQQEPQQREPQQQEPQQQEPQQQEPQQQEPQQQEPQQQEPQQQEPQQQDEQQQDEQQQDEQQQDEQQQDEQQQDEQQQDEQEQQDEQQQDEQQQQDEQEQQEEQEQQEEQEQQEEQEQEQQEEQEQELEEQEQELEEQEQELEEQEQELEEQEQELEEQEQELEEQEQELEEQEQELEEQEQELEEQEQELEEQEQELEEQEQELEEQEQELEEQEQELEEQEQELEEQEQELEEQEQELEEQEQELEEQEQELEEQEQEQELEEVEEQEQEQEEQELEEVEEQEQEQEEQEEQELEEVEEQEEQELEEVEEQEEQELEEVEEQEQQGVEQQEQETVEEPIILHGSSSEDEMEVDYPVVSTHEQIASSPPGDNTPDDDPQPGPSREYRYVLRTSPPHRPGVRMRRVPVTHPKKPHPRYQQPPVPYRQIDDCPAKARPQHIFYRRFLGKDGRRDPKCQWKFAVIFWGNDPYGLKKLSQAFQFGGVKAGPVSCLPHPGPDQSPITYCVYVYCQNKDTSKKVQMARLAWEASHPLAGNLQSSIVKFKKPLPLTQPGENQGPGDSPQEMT
Kind of test: KSHV LANA DNA-binding disruption – biochemical, fluorescence polarization, cherry-picked samples, dose response (AID 504725).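 Note: fluorescence polarization of a labeled DNA duplex reporting LANA DNA binding; potency is for inhibitors that block LANA binding to the DNA.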 On the set-up: species or system Human gammaherpesvirus 8.

Inhibitor of nuclear factor kappa-B kinase subunit epsilon, sequence (Q14164 whole entry): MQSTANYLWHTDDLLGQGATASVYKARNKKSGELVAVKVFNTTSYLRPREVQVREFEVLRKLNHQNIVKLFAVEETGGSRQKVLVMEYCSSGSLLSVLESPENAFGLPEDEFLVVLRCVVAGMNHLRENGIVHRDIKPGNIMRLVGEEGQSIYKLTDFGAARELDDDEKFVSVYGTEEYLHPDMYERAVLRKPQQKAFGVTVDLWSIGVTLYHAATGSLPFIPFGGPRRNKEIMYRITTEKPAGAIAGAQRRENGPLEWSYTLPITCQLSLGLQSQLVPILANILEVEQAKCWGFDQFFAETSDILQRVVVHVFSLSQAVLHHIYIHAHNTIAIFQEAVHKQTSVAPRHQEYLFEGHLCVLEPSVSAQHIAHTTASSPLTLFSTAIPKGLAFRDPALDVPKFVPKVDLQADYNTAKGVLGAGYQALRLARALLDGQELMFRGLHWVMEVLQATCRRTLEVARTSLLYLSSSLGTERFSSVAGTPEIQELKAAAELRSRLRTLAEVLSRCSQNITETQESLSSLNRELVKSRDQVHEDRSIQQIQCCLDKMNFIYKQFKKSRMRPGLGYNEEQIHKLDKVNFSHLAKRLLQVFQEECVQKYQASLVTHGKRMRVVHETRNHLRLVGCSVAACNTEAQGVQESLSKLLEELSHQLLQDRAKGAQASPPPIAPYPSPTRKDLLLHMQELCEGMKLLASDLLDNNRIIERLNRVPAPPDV
Dual specificity mitogen-activated protein kinase kinase 2, sequence (P36507 whole entry): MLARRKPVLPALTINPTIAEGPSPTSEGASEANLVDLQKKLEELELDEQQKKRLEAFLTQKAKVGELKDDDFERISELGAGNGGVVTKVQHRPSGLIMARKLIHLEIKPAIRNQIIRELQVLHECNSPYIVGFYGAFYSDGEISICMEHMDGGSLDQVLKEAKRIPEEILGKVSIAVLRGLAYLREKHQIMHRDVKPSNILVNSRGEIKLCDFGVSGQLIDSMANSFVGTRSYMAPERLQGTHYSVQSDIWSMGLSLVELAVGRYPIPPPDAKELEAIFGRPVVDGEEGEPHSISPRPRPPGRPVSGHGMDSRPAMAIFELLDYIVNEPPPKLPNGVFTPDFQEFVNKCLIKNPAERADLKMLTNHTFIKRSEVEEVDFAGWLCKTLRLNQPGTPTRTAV
Cyclin-dependent kinase 7, sequence (P50613 whole entry): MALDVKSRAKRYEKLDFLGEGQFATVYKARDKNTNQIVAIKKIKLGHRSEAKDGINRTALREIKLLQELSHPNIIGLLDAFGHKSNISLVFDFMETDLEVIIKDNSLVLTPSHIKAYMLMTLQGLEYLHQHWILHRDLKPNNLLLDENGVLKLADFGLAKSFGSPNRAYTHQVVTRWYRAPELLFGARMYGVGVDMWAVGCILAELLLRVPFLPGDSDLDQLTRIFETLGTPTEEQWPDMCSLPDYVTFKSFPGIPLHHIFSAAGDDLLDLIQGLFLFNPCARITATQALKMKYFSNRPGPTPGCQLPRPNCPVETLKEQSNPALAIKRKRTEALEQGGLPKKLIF
Serine/threonine-protein phosphatase PP1-alpha catalytic subunit, sequence (P62136 whole entry): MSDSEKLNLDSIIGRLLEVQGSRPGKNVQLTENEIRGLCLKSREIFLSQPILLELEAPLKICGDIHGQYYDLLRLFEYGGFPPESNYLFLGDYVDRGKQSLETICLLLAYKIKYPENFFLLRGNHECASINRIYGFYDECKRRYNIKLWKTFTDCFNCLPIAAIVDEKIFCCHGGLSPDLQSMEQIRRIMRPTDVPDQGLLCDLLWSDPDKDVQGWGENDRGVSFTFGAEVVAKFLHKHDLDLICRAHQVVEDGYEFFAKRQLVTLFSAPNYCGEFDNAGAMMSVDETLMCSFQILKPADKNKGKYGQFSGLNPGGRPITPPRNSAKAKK
Focal adhesion kinase 1, sequence (Q05397 whole entry): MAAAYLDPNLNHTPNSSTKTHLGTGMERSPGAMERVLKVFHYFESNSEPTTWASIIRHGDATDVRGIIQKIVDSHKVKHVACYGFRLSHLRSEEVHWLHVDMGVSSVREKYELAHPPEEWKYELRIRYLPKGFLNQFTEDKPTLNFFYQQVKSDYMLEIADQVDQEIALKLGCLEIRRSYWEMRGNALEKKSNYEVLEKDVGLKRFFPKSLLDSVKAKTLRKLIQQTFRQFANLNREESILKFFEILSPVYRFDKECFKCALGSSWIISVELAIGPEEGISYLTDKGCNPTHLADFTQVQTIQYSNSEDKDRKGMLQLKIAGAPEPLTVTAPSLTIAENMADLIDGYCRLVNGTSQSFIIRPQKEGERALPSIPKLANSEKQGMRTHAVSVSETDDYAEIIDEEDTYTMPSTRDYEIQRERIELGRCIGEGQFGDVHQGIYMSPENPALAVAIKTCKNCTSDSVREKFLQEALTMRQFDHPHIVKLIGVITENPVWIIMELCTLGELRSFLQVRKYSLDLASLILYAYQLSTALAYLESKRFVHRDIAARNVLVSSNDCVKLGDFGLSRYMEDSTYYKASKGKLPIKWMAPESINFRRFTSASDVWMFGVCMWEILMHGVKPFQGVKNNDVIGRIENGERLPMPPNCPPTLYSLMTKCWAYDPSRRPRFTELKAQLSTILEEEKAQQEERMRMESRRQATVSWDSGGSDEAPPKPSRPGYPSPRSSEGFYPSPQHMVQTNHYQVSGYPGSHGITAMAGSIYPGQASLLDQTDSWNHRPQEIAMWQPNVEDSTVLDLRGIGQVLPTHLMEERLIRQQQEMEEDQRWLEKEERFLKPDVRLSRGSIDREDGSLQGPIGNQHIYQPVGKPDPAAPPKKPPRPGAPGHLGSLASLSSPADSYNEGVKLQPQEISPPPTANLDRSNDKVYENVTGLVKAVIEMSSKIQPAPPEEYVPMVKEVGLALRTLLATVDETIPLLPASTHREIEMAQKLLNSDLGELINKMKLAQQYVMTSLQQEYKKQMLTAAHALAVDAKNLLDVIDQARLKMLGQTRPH
Mitogen-activated protein kinase kinase kinase kinase 4, sequence (O95819 whole entry): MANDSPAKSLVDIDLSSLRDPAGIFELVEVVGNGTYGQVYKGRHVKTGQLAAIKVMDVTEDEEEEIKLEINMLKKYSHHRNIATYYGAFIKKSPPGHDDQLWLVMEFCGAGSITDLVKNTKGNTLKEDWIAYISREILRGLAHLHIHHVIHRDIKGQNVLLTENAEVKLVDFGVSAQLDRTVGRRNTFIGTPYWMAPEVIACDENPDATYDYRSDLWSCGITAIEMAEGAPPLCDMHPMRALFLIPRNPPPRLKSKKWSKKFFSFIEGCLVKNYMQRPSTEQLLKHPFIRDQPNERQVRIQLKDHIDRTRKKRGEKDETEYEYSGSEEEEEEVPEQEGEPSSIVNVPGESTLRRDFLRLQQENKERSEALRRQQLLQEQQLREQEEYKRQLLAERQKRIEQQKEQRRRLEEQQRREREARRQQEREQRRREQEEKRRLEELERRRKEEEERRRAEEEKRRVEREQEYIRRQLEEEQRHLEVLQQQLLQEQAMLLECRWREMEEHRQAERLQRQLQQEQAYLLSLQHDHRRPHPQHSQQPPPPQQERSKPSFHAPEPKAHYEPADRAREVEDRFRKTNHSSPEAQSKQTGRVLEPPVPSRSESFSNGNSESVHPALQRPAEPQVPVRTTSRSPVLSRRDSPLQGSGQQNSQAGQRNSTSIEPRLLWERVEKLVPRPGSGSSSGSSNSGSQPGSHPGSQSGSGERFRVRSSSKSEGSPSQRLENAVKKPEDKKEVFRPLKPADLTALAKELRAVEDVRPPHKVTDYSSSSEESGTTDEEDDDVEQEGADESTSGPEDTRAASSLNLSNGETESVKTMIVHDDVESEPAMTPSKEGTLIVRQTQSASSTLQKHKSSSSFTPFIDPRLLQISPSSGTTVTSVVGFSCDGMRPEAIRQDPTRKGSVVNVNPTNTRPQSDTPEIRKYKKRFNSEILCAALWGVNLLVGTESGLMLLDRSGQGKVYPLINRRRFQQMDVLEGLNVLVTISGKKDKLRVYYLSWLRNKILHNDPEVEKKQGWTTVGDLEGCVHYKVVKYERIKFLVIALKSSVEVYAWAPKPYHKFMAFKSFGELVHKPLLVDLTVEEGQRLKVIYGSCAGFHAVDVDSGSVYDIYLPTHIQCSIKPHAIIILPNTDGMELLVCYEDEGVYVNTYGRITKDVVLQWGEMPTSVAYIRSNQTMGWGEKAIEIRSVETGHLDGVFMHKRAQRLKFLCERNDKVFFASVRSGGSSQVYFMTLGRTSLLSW
Dual specificity protein phosphatase 3, sequence (P51452 whole entry): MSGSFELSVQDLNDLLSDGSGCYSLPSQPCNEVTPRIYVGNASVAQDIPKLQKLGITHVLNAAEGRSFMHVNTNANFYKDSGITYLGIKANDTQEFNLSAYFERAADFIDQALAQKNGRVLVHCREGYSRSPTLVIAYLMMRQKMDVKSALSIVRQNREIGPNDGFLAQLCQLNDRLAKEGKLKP
Serine/threonine-protein kinase Nek2, sequence (P51955 whole entry): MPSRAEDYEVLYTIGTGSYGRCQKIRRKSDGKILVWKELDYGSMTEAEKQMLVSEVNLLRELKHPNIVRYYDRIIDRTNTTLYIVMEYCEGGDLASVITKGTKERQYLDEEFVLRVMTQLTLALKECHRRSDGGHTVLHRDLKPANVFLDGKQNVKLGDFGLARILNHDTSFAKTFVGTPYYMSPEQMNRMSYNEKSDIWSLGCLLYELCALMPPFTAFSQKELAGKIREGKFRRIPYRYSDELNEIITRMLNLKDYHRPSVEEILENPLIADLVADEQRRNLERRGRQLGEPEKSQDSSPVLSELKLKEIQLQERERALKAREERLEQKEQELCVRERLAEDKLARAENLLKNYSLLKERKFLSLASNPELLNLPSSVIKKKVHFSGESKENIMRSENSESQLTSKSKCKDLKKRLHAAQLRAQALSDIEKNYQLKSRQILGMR

On to `O=C(NNc1cc(N2CCCC2)nc(N2CCCC2)n1)c1ccc([N+](=O)[O-])cc1`, for which the IC50 in test [1] is listed as > 67 µM (not active).
Take `O=C(Cc1cccs1)Nc1nc2ccccc2s1`: the Ki on Focal adhesion kinase 1 was > 6.31 µM (inactive); in test [2] it was 1 µM (active); in test [3], 1 µM (active); in test [4] it was > 5.01 µM (inactive); in test [5], 0.794 µM (active); in test [6], > 3.16 µM (inactive).
With `O=S(=O)(O)c1cccc2c(N=Nc3ccc(O)c4ncccc34)cccc12`, the values for the half-maximal inhibitory concentration (IC50) in [7] and in [8] were 1.7 µM (active) and 71.5 µM (active), respectively. In addition, at ORF 73, the AC50 was 64.1 µM (active).
